Consider 35 molecules from US9657014B2, “Substituted 1,6-naphthyridines” (Hoffmann-La Roche Inc., priority 2012, dated 2017).

The subject of the assay is human embryonic stem cell derived neural stem cells (NSCs). The experiment in a line: Neural stem cell proliferation assay (neurogenesis assay). Format: cell-based. The conditions noted are these: Homo sapiens, Neural stem cell, 96 h; Table 1, novel compounds; concentration at which 150% activity of control (100%) is reached; ATP levels (CellTiterGlo) after 4 days incubation. The procedure:
Neural Stem Cell Proliferation Assay
Neurogenic properties of small molecules are determined based on the proliferation of human embryonic stem cell derived neural stem cells (NSCs) which were derived via a dual smad inhibition as previously described (Chambers, S. M., et al., Highly efficient neural conversion of human ES and iPS cells by dual inhibition of SMAD signaling, Nature biotechnology, 2009. 27 (3): p. 275-80.)
Compounds respond is measured by the increase in cells based on ATP levels (Promega:CellTiterGlo®) after an incubation period of 4 days.
NSCs are thawed and expanded over 3 passages. On the 14th day, NSCs are seeded in Polyornithin/Laminin coated 384 well plates at a cell density of 21,000 cells/cm^2 in a media volume of 38 μl.
4 hours after cell seeding, compound solutions are added at a volume of 2 μl. Stock solutions of the compounds (water, 5% DMSO) are diluted to obtain a dose response (11 points, dilution factor is 2), ranging from 8 μM to 8 nM. Controls are run to consistently determine the neurogenic properties of the cells:
Negative (neutral) control is cell culture Media (final DMSO concentration: 0.25%).
Positive controls are: • 1. cell culture Media+100 ng/ml FGF2 (final DMSO concentration: 0.1%) • 2. cell culture Media+20 ng/ml EGF (final DMSO concentration: 0.1%) • 3. cell culture Media+100 ng/ml Wnt3a (final DMSO concentration: 0.1%)
After 4 days incubation at 37° C., 5% CO2, the amount of ATP per well is quantified. The ATP concentration is proportional to the cell number. ATP is quantified by using the Promega CellTiterGlo® kit. The CellTiterGlo® reagents contain a cell lysis buffer, a thermo stable luciferase (UltraGlo™ recombinant luciferase), magnesium and luciferin. Luciferin reacts with ATP producing oxyluciferin, AMP and light. The luminescence signal is proportional to the ATP content.
The value of negative (neutral) control is determined for each assay plate by taking the average of 16 negative control wells. The neurogenic compound response is calculated for each compound as (compound/Negative Control)*100.
The values of EC150 from the dose response curve are determined for each test compound. The EC150 is the compound concentration at which 150% activity of control (100%) is reached.
`O=C(NCCCn1ccnc1)c1ccc2cncc(-c3ccc(Cl)cc3)c2n1` [Example 37, N-(3-(1H-Imidazol-1-yl)propyl)-8-(4-chlorophenyl)-1,6-naphthyridine-2-carboxamide] showed an EC (150% of control) of 0.12 µM.

`COc1cccc(-c2cncc3ccc(C(=O)NCCCn4ccnc4)nc23)c1` [Example 38, N-(3-(1H-Imidazol-1-yl)propyl)-8-(3-methoxyphenyl)-1,6-naphthyridine-2-carboxamide]: the EC (150% of control) was found to be 1.95 µM.

`COc1ccccc1-c1cncc2ccc(C(=O)NCCCn3ccnc3)nc12` [Example 39, N-(3-(1H-Imidazol-1-yl)propyl)-8-(2-methoxyphenyl)-1,6-naphthyridine-2-carboxamide] gave an EC (150% of control) of 0.74 µM.

Turning to `O=C(NCCCn1ccnc1)c1ccc2cncc(-c3ccccc3Cl)c2n1` [Example 40, N-(3-(1H-Imidazol-1-yl)propyl)-8-(2-chlorophenyl)-1,6-naphthyridine-2-carboxamide], the EC (150% of control) came to 0.69 µM.

`O=C(NCCCn1ccnc1)c1ccc2cncc(-c3ccncc3)c2n1` [Example 41, N-(3-(1H-Imidazol-1-yl)propyl)-8-(pyridin-4-yl)-1,6-naphthyridine-2-carboxamide] registered an EC (150% of control) of 1.7 µM.

For the molecule `COc1ccc(-c2cncc3ccc(C(=O)NCCCn4nc(C)cc4C)nc23)cc1` [Example 42, N-(3-(3,5-Dimethyl-1H-pyrazol-1-yl)propyl)-8-(4-methoxyphenyl)-1,6-naphthyridine-2-carboxamide], the EC (150% of control) came out at 0.25 µM.

`O=C(NCCCn1ccnc1)c1ccc2cncc(C3=CCOCC3)c2n1` [Example 43, N-(3-(1H-Imidazol-1-yl)propyl)-8-(3,6-dihydro-2H-pyran-4-yl)-1,6-naphthyridine-2-carboxamide] came in with an EC (150% of control) of 2.68 µM.

`NC(=O)c1ccc2cncc(-c3ccc(Cl)cc3)c2n1` [Example 44, 8-(4-Chlorophenyl)-1,6-naphthyridine-2-carboxamide] gave an EC (150% of control) of 0.03 µM.

As for `O=C(NCc1cccnc1)c1ccc2cncc(-c3ccc(Cl)cc3)c2n1` [Example 45, 8-(4-Chlorophenyl)-N-(pyridin-3-ylmethyl)-1,6-naphthyridine-2-carboxamide], the EC (150% of control) stood at 0.02 µM.

As to `O=C(NCc1ccccn1)c1ccc2cncc(-c3ccc(Cl)cc3)c2n1` [Example 46, 8-(4-Chlorophenyl)-N-(pyridin-2-ylmethyl)-1,6-naphthyridine-2-carboxamide], the EC (150% of control) turned out to be 0.51 µM.

`COc1ccccc1CNC(=O)c1ccc2cncc(-c3ccc(Cl)cc3)c2n1` [Example 47, 8-(4-Chlorophenyl)-N-(2-methoxybenzyl)-1,6-naphthyridine-2-carboxamide] had an EC (150% of control) of 0.13 µM.

In the case of `Cc1cnc(CNC(=O)c2ccc3cncc(-c4ccc(Cl)cc4)c3n2)cn1` [Example 48, 8-(4-Chlorophenyl)-N-((5-methylpyrazin-2-yl)methyl)-1,6-naphthyridine-2-carboxamide], the EC (150% of control) is 0.88 µM.

The molecule `CS(=O)(=O)NNC(=O)c1ccc2cncc(-c3ccc(Cl)cc3)c2n1` [Example 49, N′-(8-(4-Chlorophenyl)-1,6-naphthyridine-2-carbonyl)methanesulfonohydrazide] returned an EC (150% of control) of 0.07 µM.

For `CS(=O)(=O)c1ccc(CNC(=O)c2ccc3cncc(-c4ccc(Cl)cc4)c3n2)cc1` [Example 50, 8-(4-Chlorophenyl)-N-(4-(methylsulfonyl)benzyl)-1,6-naphthyridine-2-carboxamide], the EC (150% of control) was determined as 0.32 µM.

Take `CS(=O)(=O)c1cccc(CNC(=O)c2ccc3cncc(-c4ccc(Cl)cc4)c3n2)c1` [Example 51, 8-(4-Chlorophenyl)-N-(3-(methylsulfonyl)benzyl)-1,6-naphthyridine-2-carboxamide]: the EC (150% of control) stood at 0.12 µM.

With `O=C(Nc1ccccc1)c1ccc2cncc(-c3ccc(Cl)cc3)c2n1` [Example 53, 8-(4-Chlorophenyl)-N-phenyl-1,6-naphthyridine-2-carboxamide], the EC (150% of control) was found to be 0.23 µM.

As to `O=C(Nc1cccnc1)c1ccc2cncc(-c3ccc(Cl)cc3)c2n1` [Example 54, 8-(4-Chlorophenyl)-N-(pyridin-3-yl)-1,6-naphthyridine-2-carboxamide], the EC (150% of control) was 0.8 µM.

`Cn1cc(NC(=O)c2ccc3cncc(-c4ccc(Cl)cc4)c3n2)cn1` [Example 55, 8-(4-Chlorophenyl)-N-(1-methyl-1H-pyrazol-4-yl)-1,6-naphthyridine-2-carboxamide]: the EC (150% of control) amounted to 0.25 µM.

For the molecule `O=C(c1ccc2cncc(-c3ccc(Cl)cc3)c2n1)N1CCCCC1` [Example 56, (8-(4-Chlorophenyl)-1,6-naphthyridin-2-yl)(piperidin-1-yl)methanone], the EC (150% of control) worked out at 1.51 µM.

The molecule `O=C(c1ccc2cncc(-c3ccc(Cl)cc3)c2n1)N1CCOCC1` [Example 57, (8-(4-Chlorophenyl)-1,6-naphthyridin-2-yl)(morpholino)methanone] registered an EC (150% of control) of 0.17 µM.

In the case of `CC(C)(C)OC(=O)N1CCN(C(=O)c2ccc3cncc(-c4ccc(Cl)cc4)c3n2)CC1` [Example 58, tert-Butyl 4-(8-(4-chlorophenyl)-1,6-naphthyridine-2-carbonyl)piperazine-1-carboxylate], the EC (150% of control) was determined as 1.1 µM.

`O=C(NN1CCCCC1)c1ccc2cncc(-c3ccc(Cl)cc3)c2n1` [Example 59, 8-(4-Chlorophenyl)-N-(piperidin-1-yl)-1,6-naphthyridine-2-carboxamide]: the EC (150% of control) is 1.48 µM.

Molecule `O=C(NC1CCOC1)c1ccc2cncc(-c3ccc(Cl)cc3)c2n1` (centres unmarked) [Example 60, 8-(4-Chlorophenyl)-N-(tetrahydrofuran-3-yl)-1,6-naphthyridine-2-carboxamide] had an EC (150% of control) of 0.15 µM.

Consider `O=C(c1ccc2cncc(-c3ccc(Cl)cc3)c2n1)N1CCNCC1` [Example 61, (8-(4-Chlorophenyl)-1,6-naphthyridin-2-yl)(piperazin-1-yl)methanone], for which the EC (150% of control) turned out to be 3.15 µM.

As for `CC1(CNC(=O)c2ccc3cncc(-c4ccc(Cl)cc4)c3n2)CCC(=O)N1` (centres unmarked) [Example 62, 8-(4-Chlorophenyl)-N-((2-methyl-5-oxopyrrolidin-2-yl)methyl)-1,6-naphthyridine-2-carboxamide], the EC (150% of control) came out at 0.01 µM.

As to `O=C(NCC(F)(F)F)c1ccc2cncc(-c3ccc(Cl)cc3)c2n1` [Example 63, 8-(4-Chlorophenyl)-N-(2,2,2-trifluoroethyl)-1,6-naphthyridine-2-carboxamide], the EC (150% of control) was 0.23 µM.

Molecule `O=C(NCCC(F)(F)F)c1ccc2cncc(-c3ccc(Cl)cc3)c2n1` [Example 64, 8-(4-Chlorophenyl)-N-(3,3,3-trifluoropropyl)-1,6-naphthyridine-2-carboxamide] had an EC (150% of control) of 0.15 µM.

Regarding `O=C(NC1CC1)c1ccc2cncc(-c3ccc(Cl)cc3)c2n1` [Example 65, 8-(4-Chlorophenyl)-N-cyclopropyl-1,6-naphthyridine-2-carboxamide], the EC (150% of control) worked out at 0.08 µM.

Regarding `CN(CC1CC1)C(=O)c1ccc2cncc(-c3ccc(Cl)cc3)c2n1` [Example 66, 8-(4-Chlorophenyl)-N-(cyclopropylmethyl)-N-methyl-1,6-naphthyridine-2-carboxamide], the EC (150% of control) is 0.7 µM.

`O=C(NCC1CC1)c1ccc2cncc(-c3ccc(Cl)cc3)c2n1` [Example 67, 8-(4-Chlorophenyl)-N-(cyclopropylmethyl)-1,6-naphthyridine-2-carboxamide]: the EC (150% of control) was found to be 0.01 µM.

`CC(C)(C)CNC(=O)c1ccc2cncc(-c3ccc(Cl)cc3)c2n1` [Example 68, 8-(4-Chlorophenyl)-N-neopentyl-1,6-naphthyridine-2-carboxamide] yielded an EC (150% of control) of 0.07 µM.

`CC(C)(C)NC(=O)c1ccc2cncc(-c3ccc(Cl)cc3)c2n1` [Example 69, N-tert-Butyl-8-(4-chlorophenyl)-1,6-naphthyridine-2-carboxamide] showed an EC (150% of control) of 0.32 µM.

`CC(C)NC(=O)c1ccc2cncc(-c3ccc(Cl)cc3)c2n1` [Example 70, 8-(4-Chlorophenyl)-N-isopropyl-1,6-naphthyridine-2-carboxamide]: the EC (150% of control) is 0.6 µM.

Regarding `CC(C)(CO)NC(=O)c1ccc2cncc(-c3ccc(Cl)cc3)c2n1` [Example 71, 8-(4-Chlorophenyl)-N-(1-hydroxy-2-methylpropan-2-yl)-1,6-naphthyridine-2-carboxamide], the EC (150% of control) came to 1.06 µM.

For `CS(=O)(=O)CCNC(=O)c1ccc2cncc(-c3ccc(Cl)cc3)c2n1` [Example 72, 8-(4-Chlorophenyl)-N-(2-(methylsulfonyl)ethyl)-1,6-naphthyridine-2-carboxamide], the EC (150% of control) came out at 0.1 µM.
